Laboratory results reported in patent US20120029187A1, “HALOALKYLSULFONANILIDE DERIVATIVE” (Nissan Chemical Industries, Ltd., priority 2009, published 2012).

How the values were obtained:
Format in all cases: in vivo
barnyardgrass [1] = assay: Test Example 1: herbicidal effects in preemergence treatment under submerged conditions; conditions: dose 2.52 g/a
Procedure, shortened: (§1)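 Submerged conditions, 4 cm water over alluvial soil. Weeds sown and 2.5-leaf rice transplanted; compound applied preemergence to water surface, doses in g per are. Greenhouse, 25 to 30° C., three weeks, then 0–5 mortality rating.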

bulrush [2] = assay: as above; conditions: dose 2.52 g/a
Procedure, shortened: as §1

ducksalad [3] = assay: as above; conditions: dose 2.52 g/a
Procedure, shortened: as §1

transplanted rice = assay: Test Example 1: preemergence treatment under submerged conditions, effect on crop; conditions: dose 2.52 g/a
Procedure, shortened: as §1

barnyardgrass [4] = assay: Test Example 2: herbicidal effects during the vegetation period under submerged conditions; conditions: treatment during the vegetation period under submerged conditions; dose 2.52 g/a
Procedure, shortened: (§2)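 Barnyardgrass, bulrush and ducksalad were co-sown in alluvial soil flooded to 4 cm and grown in a greenhouse at 25 to 30° C. At the 1- or 2-leaf stage, water-diluted emulsifiable concentrates went onto the water surface at set doses (g/a). Herbicidal effect was scored three weeks later on a graded scale.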

bulrush [5] = assay: as above; conditions: treatment during the vegetation period under submerged conditions; dose 2.52 g/a
Procedure, shortened: as §2

ducksalad [6] = assay: as above; conditions: treatment during the vegetation period under submerged conditions; dose 2.52 g/a
Procedure, shortened: as §2

Italian ryegrass [7] = assay: Test Example 3: herbicidal effects in soil treatment; conditions: dose 3.2 g/a
Procedure, shortened: (§3)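 Seeds were sown in sterilized diluvial soil and covered with about 1.5 cm of soil. Compounds, formulated as emulsifiable concentrates and diluted with water, were sprayed evenly over the soil surface at set doses in g/a. Herbicidal effect was scored on a rating scale three weeks later.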

barnyardgrass [8] = assay: as above; conditions: dose 3.2 g/a
Procedure, shortened: as §3

beadstraw [9] = assay: as above; conditions: dose 3.2 g/a
Procedure, shortened: as §3

common chickweed [10] = assay: as above; conditions: dose 3.2 g/a
Procedure, shortened: as §3

common lambsquater [11] = assay: as above; conditions: dose 3.2 g/a
Procedure, shortened: as §3

common ragweed [12] = assay: as above; conditions: dose 3.2 g/a
Procedure, shortened: as §3

giant foxtail [13] = assay: as above; conditions: dose 3.2 g/a
Procedure, shortened: as §3

large crabgrass [14] = assay: as above; conditions: dose 3.2 g/a
Procedure, shortened: as §3

posumbu knotweed [15] = assay: as above; conditions: dose 3.2 g/a
Procedure, shortened: as §3

redroot pigweed [16] = assay: as above; conditions: dose 3.2 g/a
Procedure, shortened: as §3

water foxtail [17] = assay: as above; conditions: dose 3.2 g/a
Procedure, shortened: as §3

wild oat [18] = assay: as above; conditions: dose 3.2 g/a
Procedure, shortened: as §3

Italian ryegrass [19] = assay: Test Example 4: herbicidal effect in foliage treatment; conditions: dose 3.2 g/a, three weeks after application
Procedure, shortened: (§4)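 Visual herbicidal scores on a graded scale were recorded three weeks after foliar application. Compounds went on as diluted emulsifiable concentrates at predetermined g/a to plants grown 14 days in a 25 to 30° C greenhouse.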

barnyardgrass [20] = assay: as above; conditions: dose 3.2 g/a, three weeks after application
Procedure, shortened: as §4

beadstraw [21] = assay: as above; conditions: dose 3.2 g/a, three weeks after application
Procedure, shortened: as §4

common chickweed [22] = assay: as above; conditions: dose 3.2 g/a, three weeks after application
Procedure, shortened: as §4

common lambsquater [23] = assay: as above; conditions: dose 3.2 g/a, three weeks after application
Procedure, shortened: as §4

common ragweed [24] = assay: as above; conditions: dose 3.2 g/a, three weeks after application
Procedure, shortened: as §4

giant foxtail [25] = assay: as above; conditions: dose 3.2 g/a, three weeks after application
Procedure, shortened: as §4

large crabgrass [26] = assay: as above; conditions: dose 3.2 g/a, three weeks after application
Procedure, shortened: as §4

posumbu knotweed [27] = assay: as above; conditions: dose 3.2 g/a, three weeks after application
Procedure, shortened: as §4

redroot pigweed [28] = assay: as above; conditions: dose 3.2 g/a, three weeks after application
Procedure, shortened: as §4

velvetleaf [29] = assay: as above; conditions: dose 3.2 g/a, three weeks after application
Procedure, shortened: as §4

water foxtail [30] = assay: as above; conditions: dose 3.2 g/a, three weeks after application
Procedure, shortened: as §4

wild oat [31] = assay: as above; conditions: dose 3.2 g/a, three weeks after application
Procedure, shortened: as §4

velvetleaf [32] = assay: Test Example 3: herbicidal effects in soil treatment; conditions: dose 3.2 g/a
Procedure, shortened: as §3

Compound	A: barnyardgrass, herbicidal effect (evaluation scale 0-5) (barnyardgrass [1])	B: bulrush, herbicidal effect (evaluation scale 0-5) (bulrush [2])	C: ducksalad, herbicidal effect (evaluation scale 0-5) (ducksalad [3])	a: transplanted rice, effect on crop (evaluation scale 0-5) (transplanted rice)	A: barnyardgrass, herbicidal effect (evaluation scale 0-5) (barnyardgrass [4])	B: bulrush, herbicidal effect (evaluation scale 0-5) (bulrush [5])	C: ducksalad, herbicidal effect (evaluation scale 0-5) (ducksalad [6])	H: Italian ryegrass, herbicidal effect (evaluation scale 0-5) (Italian ryegrass [7])	A: barnyardgrass, herbicidal effect (evaluation scale 0-5) (barnyardgrass [8])	O: beadstraw, herbicidal effect (evaluation scale 0-5) (beadstraw [9])	N: common chickweed, herbicidal effect (evaluation scale 0-5) (common chickweed [10])	L: common lambsquater, herbicidal effect (evaluation scale 0-5) (common lambsquater [11])	J: common ragweed, herbicidal effect (evaluation scale 0-5) (common ragweed [12])	E: giant foxtail, herbicidal effect (evaluation scale 0-5) (giant foxtail [13])	D: large crabgrass, herbicidal effect (evaluation scale 0-5) (large crabgrass [14])	K: redroot pigweed, herbicidal effect (evaluation scale 0-5) (redroot pigweed [16])	G: water foxtail, herbicidal effect (evaluation scale 0-5) (water foxtail [17])	F: wild oat, herbicidal effect (evaluation scale 0-5) (wild oat [18])	H: Italian ryegrass, herbicidal effect (Italian ryegrass [19])	A: barnyardgrass, herbicidal effect (barnyardgrass [20])	further results
CCOC(=O)N(c1ccccc1CN1COC(C(F)(F)F)CC1=O)S(=O)(=O)C(F)(F)F (stereo not shown) [II-15]	5 (mortality of 90% or above (nearly complete death))	5 (mortality of 90% or above (nearly complete death))	5 (mortality of 90% or above (nearly complete death))	0 (mortality of less than 5% (almost ineffective))	5 (mortality of 90% or above (nearly complete death))	5 (mortality of 90% or above (nearly complete death))	5 (mortality of 90% or above (nearly complete death))	4 (mortality of at least 70% and less than 90%)	4 (mortality of at least 70% and less than 90%)	0 (mortality of less than 5% (almost ineffective))	4 (mortality of at least 70% and less than 90%)	4 (mortality of at least 70% and less than 90%)	4 (mortality of at least 70% and less than 90%)	0 (mortality of less than 5% (almost ineffective))	5 (mortality of 90% or above (nearly complete death))	4 (mortality of at least 70% and less than 90%)	5 (mortality of 90% or above (nearly complete death))	0 (mortality of less than 5% (almost ineffective))	1 (mortality of at least 5% and less than 20%)	4 (mortality of at least 70% and less than 90%)	M: posumbu knotweed, herbicidal effect (evaluation scale 0-5) (posumbu knotweed [15]): 0 (mortality of less than 5% (almost ineffective)); O: beadstraw, herbicidal effect (beadstraw [21]): 4 (mortality of at least 70% and less than 90%); N: common chickweed, herbicidal effect (common chickweed [22]): 4 (mortality of at least 70% and less than 90%); L: common lambsquater, herbicidal effect (common lambsquater [23]): 4 (mortality of at least 70% and less than 90%); J: common ragweed, herbicidal effect (common ragweed [24]): 3 (mortality of at least 40% and less than 70%); E: giant foxtail, herbicidal effect (giant foxtail [25]): 3 (mortality of at least 40% and less than 70%); D: large crabgrass, herbicidal effect (large crabgrass [26]): 4 (mortality of at least 70% and less than 90%); M: posumbu knotweed, herbicidal effect (posumbu knotweed [27]): 3 (mortality of at least 40% and less than 70%); K: redroot pigweed, herbicidal effect (redroot pigweed [28]): 0 (mortality of less than 5% (almost ineffective)); I: velvetleaf, herbicidal effect (velvetleaf [29]): 5 (mortality of 90% or above (nearly complete death)); G: water foxtail, herbicidal effect (water foxtail [30]): 5 (mortality of 90% or above (nearly complete death)); F: wild oat, herbicidal effect (wild oat [31]): 0 (mortality of less than 5% (almost ineffective))
COC(=O)N(c1ccccc1CN1COC(C)(C)CC1=O)S(=O)(=O)C(F)(F)F [II-22]	5 (mortality of 90% or above (nearly complete death))	5 (mortality of 90% or above (nearly complete death))	5 (mortality of 90% or above (nearly complete death))	0 (mortality of less than 5% (almost ineffective))	5 (mortality of 90% or above (nearly complete death))	5 (mortality of 90% or above (nearly complete death))	5 (mortality of 90% or above (nearly complete death))	5 (mortality of 90% or above (nearly complete death))	5 (mortality of 90% or above (nearly complete death))	5 (mortality of 90% or above (nearly complete death))	4 (mortality of at least 70% and less than 90%)	4 (mortality of at least 70% and less than 90%)	3 (mortality of at least 40% and less than 70%)	3 (mortality of at least 40% and less than 70%)	5 (mortality of 90% or above (nearly complete death))	0 (mortality of less than 5% (almost ineffective))	5 (mortality of 90% or above (nearly complete death))	0 (mortality of less than 5% (almost ineffective))	4 (mortality of at least 70% and less than 90%)	5 (mortality of 90% or above (nearly complete death))	I: velvetleaf, herbicidal effect (evaluation scale 0-5) (velvetleaf [32]): 5 (mortality of 90% or above (nearly complete death)); O: beadstraw, herbicidal effect (beadstraw [21]): 5 (mortality of 90% or above (nearly complete death)); N: common chickweed, herbicidal effect (common chickweed [22]): 3 (mortality of at least 40% and less than 70%); L: common lambsquater, herbicidal effect (common lambsquater [23]): 3 (mortality of at least 40% and less than 70%); J: common ragweed, herbicidal effect (common ragweed [24]): 4 (mortality of at least 70% and less than 90%); E: giant foxtail, herbicidal effect (giant foxtail [25]): 5 (mortality of 90% or above (nearly complete death)); D: large crabgrass, herbicidal effect (large crabgrass [26]): 5 (mortality of 90% or above (nearly complete death)); M: posumbu knotweed, herbicidal effect (posumbu knotweed [27]): 3 (mortality of at least 40% and less than 70%); K: redroot pigweed, herbicidal effect (redroot pigweed [28]): 0 (mortality of less than 5% (almost ineffective)); I: velvetleaf, herbicidal effect (velvetleaf [29]): 5 (mortality of 90% or above (nearly complete death)); G: water foxtail, herbicidal effect (water foxtail [30]): 5 (mortality of 90% or above (nearly complete death)); F: wild oat, herbicidal effect (wild oat [31]): 0 (mortality of less than 5% (almost ineffective))
